Experimental findings from US20240238255A1, “KL1333 FOR USE IN MEDICINE” (ABLIVA AB, priority 2021, published 2024) are described below.

A short description of data set [1]: Plasma exposure of Total KL1333, Part C patients with primary mitochondrial disease. Conditions: human, in vivo. An excerpt: Part C will comprise a randomised, multiple-dose, single-group, placebo-controlled study. A total of 8 patients diagnosed with any mitochondrial disease will be enrolled in this part of the study. Part C may start after the dose selection conference has been completed for the final cohort of Part B, at a daily dose no higher than the highest well-tolerated dose in Part B.
It is planned for patients to receive study drug QD on Days 1 to 10. Dose levels, dose frequency, and dietary state will be confirmed following review of safety, tolerability, and PK data from Part B, and unless deemed very unfavourable for the conduct of the study, the patients will not be required to be fasting prior to dosing. Study drug will be administered by clinical site staff when the patients are resident at the clinical site or return for outpatient visits. On all other days, patients will record drug administration and any concomitant medications in a diary that will be provided to each patient. Diaries will be reviewed and checked for compliance during the outpatient visits and as part of the check-in procedures on Day 10. Clinical symptoms that occur while patients are not resident at the site will be collected by the site using standard adverse event (AE) reporting procedures. […]

The subject of data set [2] is cells derived from patients with MELAS. The data set is described as follows: Cellular models, including cells derived from patients with MELAS. It counts as cell-based, human. Conditions: including MELAS patient-derived cells.
The target in another data set is NQO1 (Homo sapiens, UniProt P15559). Nature of the data set: NQO1 substrate activity. Format: biochemical. Particulars: compared with other NQO1 active compounds (ie, idebenone). From the text: KL1333 is a novel compound under development for primary mitochondrial diseases. KL1333 acts as a substrate for NAD(P)H:dehydrogenase [quinone]1 (NQO1), which produces nicotinamide adenine dinucleotide (oxidized form; NAD^+) by transferring 2 electrons to KL1333 using nicotinamide adenine dinucleotide (reduced form; NADH) as a cofactor. KL1333 transfers these electrons to the mitochondrial electron transport system, directly promoting ATP production. Additionally, the elevated NAD^+ levels lead to activation of mitochondrial biogenesis pathways, such as sirtuin 1 (SIRT1), 5′-adenosine monophosphate-activated protein kinase (AMPK), and peroxisome proliferator-activated receptor gamma coactivator 1-alpha (PGC-1α), thereby improving mitochondrial function.
Chain of NQO1 (P15559 whole entry, species assumed): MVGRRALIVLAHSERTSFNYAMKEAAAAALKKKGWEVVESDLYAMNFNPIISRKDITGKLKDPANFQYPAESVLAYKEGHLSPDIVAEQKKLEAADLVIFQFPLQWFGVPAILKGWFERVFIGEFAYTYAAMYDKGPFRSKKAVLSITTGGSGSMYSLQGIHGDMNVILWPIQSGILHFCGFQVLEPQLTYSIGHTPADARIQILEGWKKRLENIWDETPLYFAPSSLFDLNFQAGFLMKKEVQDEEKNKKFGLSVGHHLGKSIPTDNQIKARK

Data set [3] relates to patients with primary mitochondrial disease. The data set is described as follows: NeuroQoL Short Form Fatigue in primary mitochondrial disease patients. Format: in vivo, human.
Data set [4] relates to blood lactate/pyruvate ratio. The data set is described as follows: Blood lactate/pyruvate ratio in healthy volunteers. Format: in vivo, human. The protocol:
FIG. 5. Healthy volunteers were treated with KL1333 (n=36) or placebo (n=14) once daily for 9 days prior to blood sampling for measurement of lactate and pyruvate concentrations and calculation of a lactate pyruvate ratio. Data for different doses of KL1333 were combined, including 50 mg QD, 50 mg TID, 75 mg QD, 75 mg BID, 150 mg QD and 250 mg QD.
FIG. 6. The blood lactate/pyruvate concentration ratio decreased with increasing concentration of KL1333 in plasma Day 10 after treatment with KL1333. Healthy volunteers were treated with KL1333 (n=36) or placebo (n=14) once daily for 9 days prior to blood sampling for measurement of lactate and pyruvate concentrations and calculation of a lactate pyruvate ratio. Data for different doses of KL1333 were combined from 7 cohorts consisting of two placebo and 6 KL1333 subjects, treated with 25 mg QD, 50 mg QD, 50 mg TID, 75 mg QD, 75 mg BID, 150 mg QD and 250 mg QD. Data were normalized against the cohort mean value for each cohort.
(§1) For Parts B through D, blood biomarker assessments will include: • nicotinamide adenine dinucleotide (oxidized form; NAD^+)/nicotinamide adenine dinucleotide (reduced form; NADH) concentrations and ratio • fibroblast growth factor-21 (FGF21) • growth/differentiation factor-15 (GDF15) • lactate/pyruvate concentrations and ratio.

Data set [5] relates to patients with primary mitochondrial disease. Nature of the data set: Clinical outcome assessments overall in primary mitochondrial disease patients. Format: in vivo, human.
Data set [6] can be described thus: Drug substance properties. Format: physicochemical. Particulars: crystalline powder. From the text: KL-1333 is a drug substance with a molecular mass of 240.26 g/mol. […] It is manufactured via multi-step chemical synthesis.
Data set [7] has as its system lactate/pyruvate ratio, serum niacinamide, serum xanthine. Nature of the data set: Blood and serum biomarkers in PMD patients. It counts as in vivo, human. The protocol:
FIG. 7. Lactate/Pyruvate ratio in PMD patients treated daily with 50 mg KL1333 (n=6) or placebo (n=2) for 10 days.
FIG. 8. Serum niacinamide is an early biomarker of response to KL1333 treatment. PMD patients were treated with 50 mg KL1333 QD (n=6) or placebo (n=2). The data are expressed as the ratio of the niacinamide concentrations in Day 2 and Day 1 serum samples.
FIG. 9. Serum xanthinse is an early biomarker of response to KL1333 treatment. PMD patients were treated with 50 mg KL1333 QD (n=6) or placebo (n=2). The data are expressed as the ratio of the xanthine concentrations in Day 2 and Day 1 serum samples.
as §1

The test system of data set [8] is patients with primary mitochondrial disease. Nature of the data set: 30 Second Sit-to-Stand Test in primary mitochondrial disease patients. Format: in vivo, human. Particulars: 50 mg QD for 10 days, versus placebo; number of sit to stand repetitions.
The mark [9] stands for this setting: 50 mg once daily, 10 days of dosing, PMD patients.
Where [10] appears, read: 50 mg QD, after one day of treatment (Day 2/Day 1).

Consider `CC(C)c1nc2c([nH]1)C(=O)C(=O)c1ccccc1-2` [KL1333], for which the “pharmacokinetics profile, healthy volunteers versus patients” value in [1] is given as “similar”. In data set [2], the ATP result is given as “increased ATP”; the “NAD+” value is recorded as “increased NAD^+”; the ROS result is recorded as “decreased ROS”; the “SIRT1, AMPK and PGC-1α activation” value was “activation of SIRT1, AMPK, and PGC-1α”. Also, in [2], the lactic acid result is recorded as “decreased lactic acid” and the “mitochondrial oxidative phosphorylation function” value is recorded as “improved mitochondrial oxidative phosphorylation function”. Also, on NQO1, the “potency as substrate to NQO1” value is reported as “more potent substrate to NQO1 than other NQO1 active compounds”. For the same compound, the “NeuroQoL Short Form Fatigue, mean change” value in [3] (50 mg QD for 10 days, baseline to day 10, n=6 versus placebo n=2) was “improvement”. In addition, the “NeuroQol fatigue change from baseline, high exposure group versus placebo” value in [3] (50 mg QD for 10 days, high exposure patients, Kruskal-Wallis test) is “statistically significant better than placebo”. Besides, the “correlation of NeuroQol SF Fatigue raw score change with Total KL1333 Ctrough” value in data set [3] (change from baseline to day 10, Ctrough at day 10) was “statistically significant correlation”. Also, in [4] (Day 10, plasma concentration prior to blood sampling), the “blood lactate pyruvate ratio in relation to plasma concentration of KL1333” value is given as “lowest in individuals with a plasma concentration of KL1333 exceeding 100 ng/ml”. The blood lactate/pyruvate ratio result in data set [4] (after 10 days of treatment, doses combined (n=36 versus placebo n=14)) is given as “trend of decreasing”. In data set [5] (setting [9]), the fatigue entry is recorded as “marked improvement in fatigue” and the muscle strength entry is on record as “marked improvement in muscle strength”. Besides, the “combatting fatigue and muscle weakness” value in data set [5] (clinical outcome assessments of primary mitochondrial disease patients) is listed as “effective”. Moreover, in [6], the hygroscopicity result is “non-hygroscopic” and the solubility in water entry was “practically insoluble”. Also, in data set [7] (setting [10]), the serum niacinamide entry is given as “increased” and the serum xanthine entry is recorded as “increased”. The “lactate/pyruvate ratio, Day 10 compared to Day 1” value in data set [7] (50 mg daily for 10 days (n=6), not seen in placebo) was “decreased”. Besides, the “30s Sit-to-stand test, mean change” value in [8] is on record as “greater improvement”.
